Activity calls are given as the source filed them. The rule behind the calls is not given here. Residues, ends and D or L forms follow the SMILES beside them.
Target: Core antigen (Hepatitis B virus) (UniProt Q03732)
Assay: Inhibition of Hepatitis B virus capsid formation at 100 uM treated during cell-free wild type HBV Cp synthesis using wheat germ lysates and HBV Cp RNA by Native capsid assay based western blot analysis
Assay type: subcellular

Sequence of Core antigen (Hepatitis B virus) (Q03732 as listed by the source): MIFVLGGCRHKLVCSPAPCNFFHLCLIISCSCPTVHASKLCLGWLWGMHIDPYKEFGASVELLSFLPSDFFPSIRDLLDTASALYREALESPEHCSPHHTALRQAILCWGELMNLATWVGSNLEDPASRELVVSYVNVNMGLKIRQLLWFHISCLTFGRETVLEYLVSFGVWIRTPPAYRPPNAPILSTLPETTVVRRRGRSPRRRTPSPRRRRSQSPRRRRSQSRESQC

| Structure (SMILES) | inhibition |
| --- | --- |
| CC(=O)NCC(=O)N[C@@H](CCCNC(=N)N)C(=O)N[C@@H](CCC(=O)O)C(=O)N[C@H](C(=O)N[C@H](C(=O)N[C@@H](CC(C)C)C(=O)N[C@@H](CCC(=O)O)C(=O)N[C@@H](Cc1ccc(O)cc1)C(=O)N[C@@H](CC(C)C)C(=O)N[C@H](C(=O)N[C@@H](CO)C(=O)N[C@@H](Cc1ccccc1)C(=O)NCC(=O)N[C@H](C(=O)N[C@@H](Cc1c[nH]c2ccccc12)C(N)=O)C(C)C)C(C)C)C(C)C)[C@@H](C)O (Ac-GRETVLEYLVSFGVW-NH2) | inactive |
| CC[C@H](C)[C@H](NC(=O)[C@H](C)NC(=O)[C@H](CCC(N)=O)NC(=O)[C@@H]1CCCN1C(=O)[C@H](CC(C)C)NC(=O)[C@H](C)NC(=O)[C@@H](NC(=O)[C@H](Cc1c[nH]cn1)NC(=O)[C@H](Cc1c[nH]cn1)NC(C)=O)[C@@H](C)O)C(=O)N[C@@H](CC(C)C)C(=O)N[C@@H](CS)C(=O)N[C@@H](Cc1c[nH]c2ccccc12)C(=O)NCC(=O)N[C@@H](CCC(=O)O)C(=O)N[C@@H](CC(C)C)C(N)=O (Ac-HHTALPQAILCWGEL-NH2) | inactive |
| CC[C@H](C)[C@H](NC(C)=O)C(=O)N[C@@H](CCCNC(=N)N)C(=O)N[C@H](C(=O)N1CCC[C@H]1C(=O)N1CCC[C@H]1C(=O)N[C@@H](C)C(=O)N[C@@H](Cc1ccc(O)cc1)C(=O)N[C@@H](CCCNC(=N)N)C(=O)N1CCC[C@H]1C(=O)N1CCC[C@H]1C(=O)N[C@@H](CC(N)=O)C(=O)N[C@@H](C)C(=O)N1CCC[C@H]1C(=O)N[C@H](C(=O)N[C@@H](CC(C)C)C(N)=O)[C@@H](C)CC)[C@@H](C)O (Ac-IRTPPAYRPPNAPIL-NH2) | inactive |
| CC(=O)N[C@@H](CC(C)C)C(=O)N[C@@H](CC(=O)O)C(=O)N[C@H](C(=O)N[C@@H](C)C(=O)N[C@@H](CO)C(=O)N[C@@H](C)C(=O)N[C@@H](CC(C)C)C(=O)N[C@@H](Cc1ccc(O)cc1)C(=O)N[C@@H](CCCNC(=N)N)C(=O)N[C@@H](CCC(=O)O)C(=O)N[C@@H](C)C(=O)N[C@@H](CC(C)C)C(=O)N[C@@H](CCC(=O)O)C(=O)N[C@@H](CO)C(=O)N1CCC[C@H]1C(N)=O)[C@@H](C)O (Ac-LDTASALYREALESP-NH2) | inactive |
| CC[C@H](C)[C@H](NC(=O)[C@H](Cc1c[nH]c2ccccc12)NC(=O)[C@@H](NC(=O)CNC(=O)[C@H](Cc1ccccc1)NC(=O)[C@H](CO)NC(=O)[C@@H](NC(=O)[C@H](CC(C)C)NC(=O)[C@H](Cc1ccc(O)cc1)NC(=O)[C@H](CCC(=O)O)NC(=O)[C@H](CC(C)C)NC(C)=O)C(C)C)C(C)C)C(=O)N[C@@H](CCCNC(=N)N)C(=O)N[C@H](C(=O)N1CCC[C@H]1C(=O)N1CCC[C@H]1C(N)=O)[C@@H](C)O (Ac-LEYLVSFGVWIRTPP-NH2) | inactive |
| CC[C@H](C)[C@H](NC(=O)[C@H](Cc1c[nH]cn1)NC(=O)[C@H](Cc1ccccc1)NC(=O)[C@H](Cc1c[nH]c2ccccc12)NC(=O)[C@H](CC(C)C)NC(C)=O)C(=O)N[C@@H](CO)C(=O)N[C@@H](CS)C(=O)N[C@@H](CC(C)C)C(=O)N[C@H](C(=O)N[C@@H](Cc1ccccc1)C(=O)NCC(=O)N[C@@H](CCCNC(=N)N)C(=O)N[C@@H](CCC(=O)O)C(=O)N[C@H](C(=O)N[C@H](C(N)=O)C(C)C)[C@@H](C)O)[C@@H](C)O (Ac-LWFHISCLTFGRETV-NH2) | inactive |
| CC(=O)N1CCC[C@H]1C(=O)N[C@@H](CCCNC(=N)N)C(=O)N[C@@H](CCCNC(=N)N)C(=O)N[C@@H](CCCNC(=N)N)C(=O)N[C@@H](CCCNC(=N)N)C(=O)N[C@@H](CO)C(=O)N[C@@H](CCC(N)=O)C(=O)N[C@@H](CO)C(=O)N[C@@H](CCCNC(=N)N)C(=O)N[C@@H](CCC(=O)O)C(=O)N[C@@H](CO)C(=O)N[C@@H](CCC(N)=O)C(=O)N[C@@H](CS)C(N)=O (Ac-PRRRRSQSRESQC-NH2) | inactive |
| CC(=O)N1CCC[C@H]1C(=O)N[C@@H](CCCNC(=N)N)C(=O)N[C@@H](CCCNC(=N)N)C(=O)N[C@@H](CCCNC(=N)N)C(=O)N[C@H](C(=O)N1CCC[C@H]1C(=O)N[C@@H](CO)C(=O)N1CCC[C@H]1C(=O)N[C@@H](CCCNC(=N)N)C(=O)N[C@@H](CCCNC(=N)N)C(=O)N[C@@H](CCCNC(=N)N)C(=O)N[C@@H](CCCNC(=N)N)C(=O)N[C@@H](CO)C(=O)N[C@@H](CCC(N)=O)C(=O)N[C@@H](CO)C(N)=O)[C@@H](C)O (Ac-PRRRTPSPRRRRSQS-NH2) | inactive |
| CC(=O)N1CCC[C@H]1C(=O)N[C@@H](CO)C(=O)N1CCC[C@H]1C(=O)N[C@@H](CCCNC(=N)N)C(=O)N[C@@H](CCCNC(=N)N)C(=O)N[C@@H](CCCNC(=N)N)C(=O)N[C@@H](CCCNC(=N)N)C(=O)N[C@@H](CO)C(=O)N[C@@H](CCC(N)=O)C(=O)N[C@@H](CO)C(=O)N1CCC[C@H]1C(=O)N[C@@H](CCCNC(=N)N)C(=O)N[C@@H](CCCNC(=N)N)C(=O)N[C@@H](CCCNC(=N)N)C(=O)N[C@@H](CCCNC(=N)N)C(N)=O (Ac-PSPRRRRSQSPRRRR-NH2) | inactive |
| CC(=O)N[C@@H](CCC(N)=O)C(=O)N[C@@H](CO)C(=O)N1CCC[C@H]1C(=O)N[C@@H](CCCNC(=N)N)C(=O)N[C@@H](CCCNC(=N)N)C(=O)N[C@@H](CCCNC(=N)N)C(=O)N[C@@H](CCCNC(=N)N)C(=O)N[C@@H](CO)C(=O)N[C@@H](CCC(N)=O)C(=O)N[C@@H](CO)C(=O)N[C@@H](CCCNC(=N)N)C(=O)N[C@@H](CCC(=O)O)C(=O)N[C@@H](CO)C(=O)N[C@@H](CCC(N)=O)C(=O)N[C@@H](CS)C(N)=O (Ac-QSPRRRRSQSRESQC-NH2) | inactive |
| CC(=O)N[C@@H](CCCNC(=N)N)C(=O)N[C@@H](CCCNC(=N)N)C(=O)NCC(=O)N[C@@H](CCCNC(=N)N)C(=O)N[C@@H](CO)C(=O)N1CCC[C@H]1C(=O)N[C@@H](CCCNC(=N)N)C(=O)N[C@@H](CCCNC(=N)N)C(=O)N[C@@H](CCCNC(=N)N)C(=O)N[C@H](C(=O)N1CCC[C@H]1C(=O)N[C@@H](CO)C(=O)N1CCC[C@H]1C(=O)N[C@@H](CCCNC(=N)N)C(=O)N[C@@H](CCCNC(=N)N)C(N)=O)[C@@H](C)O (Ac-RRGRSPRRRTPSPRR-NH2) | inactive |
| CC(=O)N[C@@H](CCCNC(=N)N)C(=O)N[C@@H](CCCNC(=N)N)C(=O)N[C@@H](CO)C(=O)N[C@@H](CCC(N)=O)C(=O)N[C@@H](CO)C(=O)N1CCC[C@H]1C(=O)N[C@@H](CCCNC(=N)N)C(=O)N[C@@H](CCCNC(=N)N)C(=O)N[C@@H](CCCNC(=N)N)C(=O)N[C@@H](CCCNC(=N)N)C(=O)N[C@@H](CO)C(=O)N[C@@H](CCC(N)=O)C(=O)N[C@@H](CO)C(=O)N[C@@H](CCCNC(=N)N)C(=O)N[C@@H](CCC(=O)O)C(N)=O (Ac-RRSQSPRRRRSQSRE-NH2) | inactive |
| CC(=O)N[C@@H](CO)C(=O)N[C@@H](CS)C(=O)N[C@@H](CC(C)C)C(=O)N[C@H](C(=O)N[C@@H](Cc1ccccc1)C(=O)NCC(=O)N[C@@H](CCCNC(=N)N)C(=O)N[C@@H](CCC(=O)O)C(=O)N[C@H](C(=O)N[C@H](C(=O)N[C@@H](CC(C)C)C(=O)N[C@@H](CCC(=O)O)C(=O)N[C@@H](Cc1ccc(O)cc1)C(=O)N[C@@H](CC(C)C)C(=O)N[C@H](C(N)=O)C(C)C)C(C)C)[C@@H](C)O)[C@@H](C)O (Ac-SCLTFGRETVLEYLV-NH2) | inactive |
| CC(=O)N[C@H](C(=O)N[C@H](C(=O)N[C@H](C(=O)N[C@H](C(=O)N[C@@H](CCCNC(=N)N)C(=O)N[C@@H](CCCNC(=N)N)C(=O)N[C@@H](CCCNC(=N)N)C(=O)NCC(=O)N[C@@H](CCCNC(=N)N)C(=O)N[C@@H](CO)C(=O)N1CCC[C@H]1C(=O)N[C@@H](CCCNC(=N)N)C(=O)N[C@@H](CCCNC(=N)N)C(=O)N[C@@H](CCCNC(=N)N)C(=O)N[C@H](C(N)=O)[C@@H](C)O)C(C)C)C(C)C)[C@@H](C)O)[C@@H](C)O (Ac-TTVVRRRGRSPRRRT-NH2) | inactive |
| CSCC[C@H](NC(=O)[C@H](CC(N)=O)NC(=O)[C@@H](NC(=O)[C@H](CC(N)=O)NC(=O)[C@@H](NC(=O)[C@H](Cc1ccc(O)cc1)NC(=O)[C@H](CO)NC(=O)[C@@H](NC(C)=O)C(C)C)C(C)C)C(C)C)C(=O)NCC(=O)N[C@@H](CC(C)C)C(=O)N[C@@H](CCCCN)C(=O)N[C@@H](Cc1ccccc1)C(=O)N[C@@H](CCCNC(=N)N)C(=O)N[C@@H](CCC(N)=O)C(=O)N[C@@H](CC(C)C)C(N)=O (Ac-VSYVNVNMGLKFRQL-NH2) | inactive |
| CC(C)C[C@H](NC(=O)[C@H](C)NC(=O)[C@@H](NC(=O)[C@H](Cc1c[nH]cn1)NC(=O)[C@H](Cc1c[nH]cn1)NC(=O)[C@@H]1CCCN1C(=O)[C@H](CO)NC(=O)[C@H](CS)NC(=O)[C@H](Cc1c[nH]cn1)NC(=O)[C@H](CCC(=O)O)NC(=O)[C@@H]1CCCN1C(=O)[C@H](CO)NC(=O)[C@H](CCC(=O)O)NC(=O)[C@H](CC(C)C)NC(=O)[C@H](C)N)[C@@H](C)O)C(N)=O (H-ALESPEHCSPHHTAL-NH2) | inactive |
| CC(C)C[C@H](NC(=O)[C@H](C)N)C(=O)N[C@@H](Cc1ccc(O)cc1)C(=O)N[C@@H](CCCNC(=N)N)C(=O)N[C@@H](CCC(=O)O)C(=O)N[C@@H](C)C(=O)N[C@@H](CC(C)C)C(=O)N[C@@H](CCC(=O)O)C(=O)N[C@@H](CO)C(=O)N1CCC[C@H]1C(=O)N[C@@H](CCC(=O)O)C(=O)N[C@@H](Cc1c[nH]cn1)C(=O)N[C@@H](CS)C(=O)N[C@@H](CO)C(=O)N1CCC[C@H]1C(N)=O (H-ALYREALESPEHCSP-NH2) | inactive |
| CC[C@H](C)[C@H](NC(=O)[C@@H]1CCCN1C(=O)[C@H](C)NC(=O)[C@H](CC(N)=O)NC(=O)[C@@H]1CCCN1C(=O)[C@@H]1CCCN1C(=O)[C@H](CCCNC(=N)N)NC(=O)[C@H](Cc1ccc(O)cc1)NC(=O)[C@H](C)N)C(=O)N[C@@H](CC(C)C)C(=O)N[C@@H](CO)C(=O)N[C@H](C(=O)N[C@@H](CC(C)C)C(=O)N1CCC[C@H]1C(=O)N[C@@H](CCC(=O)O)C(N)=O)[C@@H](C)O (H-AYRPPNAPILSTLPE-NH2) | inactive |
| CC[C@H](C)[C@H](NC(=O)[C@H](C)NC(=O)[C@H](CCC(N)=O)NC(=O)[C@@H]1CCCN1C(=O)[C@H](CC(C)C)NC(=O)[C@H](C)NC(=O)[C@@H](NC(=O)[C@H](Cc1c[nH]cn1)NC(=O)[C@H](Cc1c[nH]cn1)NC(=O)[C@@H]1CCCN1C(=O)[C@H](CO)NC(=O)[C@H](CS)NC(=O)[C@H](Cc1c[nH]cn1)NC(=O)[C@@H](N)CCC(=O)O)[C@@H](C)O)C(=O)N[C@@H](CC(C)C)C(N)=O (H-EHCSPHHTALPQAIL-NH2) | inactive |

From ChEMBL document CHEMBL6103552, “Identification of peptide-based hepatitis B virus capsid inhibitors based on the viral core protein” (Bioorg Med Chem Lett, 2025)
